In this assay the test system is AMPK. Nature of the assay: AMPK enzyme activity assay (Delfia technology, AMARA peptide substrate). The format is biochemical. The settings on record: compound at 30 μM vs AMP at 200 μM. How it is done: The following biological test allows the determination of the efficacy of compounds of formula (1) onto AMPK protein.
AMPK enzyme activities were assayed by using a Delfia technology. AMPK enzyme activities were carried out in microtiter plates in the presence of a synthetic peptide substrate (AMARAASAAALARRR, the “AMARA” peptide) and activators in serial dilutions. Reactions were initiated by the addition of AMPK. Enzyme activity was assayed by using an anti-phosphoserine antibody to measure the quantity of phosphate incorporated into the AMARAA.
No: Number of the molecule
Activity: Ratio between the % of control (basal activity) of compound of formula (1) at 30 μM and the % of control (basal activity) of AMP (natural substrate) at 200 μM.

Turning to `COc1cccc(-c2c(Cl)sc3c2C(=O)C(C)(c2cccc(OC)c2)C(=O)N3)c1` (stereo not shown) [No 61, 2-chloro-3,5-bis(3-methoxyphenyl)-5-methyl-7H-thieno[2,3-b]pyridine-4,6-dione], the “Activity: Ratio between the % of control (basal activity) of compound of formula (1) at 30 μM and the % of control (basal activity) of AMP (natural substrate) at 200 μM” value (“Activity: Ratio between the % of control” below) was “C (C≧75%)”.

With `COc1cccc(-c2c(Cl)sc3c2C(=O)C(C)(c2cccc(F)c2)C(=O)N3)c1` (stereo not shown) [No 62, 2-chloro-5-(3-fluorophenyl)-3-(3-methoxyphenyl)-5-methyl-7H-thieno[2,3-b]pyridine-4,6-dione], the “Activity: Ratio between the % of control” value was “C (C≧75%)”.

Regarding `COc1cccc(C2(C)C(=O)Nc3sc(Cl)c(-c4ccc(F)cc4)c3C2=O)c1` (stereo not shown) [No 63, 2-chloro-3-(4-fluorophenyl)-5-(3-methoxyphenyl)-5-methyl-7H-thieno[2,3-b]pyridine-4,6-dione], the “Activity: Ratio between the % of control” value is given as “C (C≧75%)”.

For the molecule `CC1(c2cccc(S(C)(=O)=O)c2)C(=O)Nc2sc(Cl)c(-c3ccc(F)cc3)c2C1=O` (stereo not shown) [No 64, 2-chloro-3-(4-fluorophenyl)-5-methyl-5-(3-methyl-sulfonylphenyl)-7H-thieno[2,3-b]pyridine-4,6-dione], the “Activity: Ratio between the % of control” value is recorded as “C (C≧75%)”.

On to `COc1ccccc1-c1c(Cl)sc2c1C(=O)C(C)(c1ccc(C)cc1)C(=O)N2` (stereo not shown) [No 65, 2-chloro-3-(2-methoxyphenyl)-5-methyl-5-(p-tolyl)-7H-thieno[2,3-b]pyridine-4,6-dione], for which the “Activity: Ratio between the % of control” value is listed as “C (C≧75%)”.

Take `COc1ccccc1-c1c(Cl)sc2c1C(=O)C(C)(c1cccc(F)c1)C(=O)N2` (stereo not shown) [No 66, 2-chloro-5-(3-fluorophenyl)-3-(2-methoxyphenyl)-5-methyl-7H-thieno[2,3-b]pyridine-4,6-dione]: the “Activity: Ratio between the % of control” value is listed as “C (C≧75%)”.

For the molecule `COc1ccc(C2(C)C(=O)Nc3sc(Cl)c(-c4ccccc4OC)c3C2=O)cc1` (stereo not shown) [No 67, 2-chloro-3-(2-methoxyphenyl)-5-(4-methoxyphenyl)-5-methyl-7H-thieno[2,3-b]pyridine-4,6-dione], the “Activity: Ratio between the % of control” value was “C (C≧75%)”.

Take `COc1cccc(C2(C)C(=O)Nc3sc(Cl)c(-c4ccccc4OC)c3C2=O)c1` (stereo not shown) [No 68, 2-chloro-3-(2-methoxyphenyl)-5-(3-methoxyphenyl)-5-methyl-7H-thieno[2,3-b]pyridine-4,6-dione]: the “Activity: Ratio between the % of control” value is given as “C (C≧75%)”.

Turning to `COc1ccccc1-c1c(Cl)sc2c1C(=O)C(C)(c1ccccc1F)C(=O)N2` (stereo not shown) [No 69, 2-chloro-5-(2-fluorophenyl)-3-(2-methoxyphenyl)-5-methyl-7H-thieno[2,3-b]pyridine-4,6-dione], the “Activity: Ratio between the % of control” value is recorded as “C (C≧75%)”.

In the case of `Cc1sc2c(c1-c1ccccc1)C(=O)C(F)(c1ccccc1)C(=O)N2` (stereo not shown) [No 70, 5-fluoro-2-methyl-3,5-diphenyl-7H-thieno[2,3-b]pyridine-4,6-dione], the “Activity: Ratio between the % of control” value is recorded as “C (C≧75%)”.

`O=C1Nc2sc(Cl)c(-c3cccnc3)c2C(=O)C1(F)c1ccccc1` (stereo not shown) [No 71, 2-chloro-5-fluoro-5-phenyl-3-(3-pyridyl)-7H-thieno[2,3-b]pyridine-4,6-dione]: the “Activity: Ratio between the % of control” value is “B (50%≦B<75%)”.

Take `O=C1Nc2sc(Cl)c(-c3ccc(O)cc3)c2C(=O)C1(F)c1ccccc1` (stereo not shown) [No 72, 2-chloro-5-fluoro-3-(4-hydroxyphenyl)-5-phenyl-7H-thieno[2,3-b]pyridine-4,6-dione]: the “Activity: Ratio between the % of control” value is reported as “C (C≧75%)”.

As for `O=C1Nc2sc(Cl)c(-c3ccccc3F)c2C(=O)C1(F)c1ccccc1` (stereo not shown) [No 73, 2-chloro-5-fluoro-3-(2-fluorophenyl)-5-phenyl-7H-thieno[2,3-b]pyridine-4,6-dione], the “Activity: Ratio between the % of control” value is listed as “C (C≧75%)”.

Regarding `COc1ccc(-c2c(Cl)sc3c2C(=O)C(F)(c2ccccc2)C(=O)N3)c(F)c1` (stereo not shown) [No 74, 2-chloro-5-fluoro-3-(2-fluoro-4-methoxy-phenyl)-5-phenyl-7H-thieno[2,3-b]pyridine-4,6-dione], the “Activity: Ratio between the % of control” value is listed as “C (C≧75%)”.

Consider `Cc1ccc(C2(C)C(=O)Nc3sc(Cl)c(-c4ccccc4F)c3C2=O)cc1` (stereo not shown) [No 75, 2-chloro-3-(2-fluorophenyl)-5-methyl-5-(p-tolyl)-7H-thieno[2,3-b]pyridine-4,6-dione], for which the “Activity: Ratio between the % of control” value is given as “A (0%<A<50%)”.

Regarding `COc1cccc(C2(C)C(=O)Nc3sc(Cl)c(-c4ccccc4F)c3C2=O)c1` (stereo not shown) [No 76, 2-chloro-3-(2-fluorophenyl)-5-(3-methoxyphenyl)-5-methyl-7H-thieno[2,3-b]pyridine-4,6-dione], the “Activity: Ratio between the % of control” value is on record as “A (0%<A<50%)”.

As to `O=C1Nc2sc(Cl)c(-c3ccc(O)c(F)c3)c2C(=O)C1(F)c1ccccc1` (stereo not shown) [No 77, 2-chloro-5-fluoro-3-(3-fluoro-4-hydroxy-phenyl)-5-phenyl-7H-thieno[2,3-b]pyridine-4,6-dione], the “Activity: Ratio between the % of control” value is listed as “B (50%≦B<75%)”.

As to `COc1ccccc1C1(F)C(=O)Nc2sc(C)c(-c3ccccc3)c2C1=O` (stereo not shown) [No 78, 5-fluoro-5-(2-methoxyphenyl)-2-methyl-3-phenyl-7H-thieno[2,3-b]pyridine-4,6-dione], the “Activity: Ratio between the % of control” value was “A (0%<A<50%)”.

As for `Cc1cccc(-c2c(Cl)sc3c2C(=O)C(F)(c2ccccc2)C(=O)N3)c1` (stereo not shown) [No 79, 2-chloro-5-fluoro-3-(m-tolyl)-5-phenyl-7H-thieno[2,3-b]pyridine-4,6-dione], the “Activity: Ratio between the % of control” value is on record as “C (C≧75%)”.

Consider `Cc1ccc(-c2c(Cl)sc3c2C(=O)C(F)(c2ccccc2)C(=O)N3)cc1` (stereo not shown) [No 80, 2-chloro-5-fluoro-5-phenyl-3-(p-tolyl)-7H-thieno[2,3-b]pyridine-4,6-dione], for which the “Activity: Ratio between the % of control” value was “C (C≧75%)”.

With `COc1ccc(-c2c(Cl)sc3c2C(=O)C(F)(c2ccccc2)C(=O)N3)cc1` (stereo not shown) [No 81, 2-chloro-5-fluoro-3-(4-methoxyphenyl)-5-phenyl-7H-thieno[2,3-b]pyridine-4,6-dione], the “Activity: Ratio between the % of control” value is reported as “B (50%≦B<75%)”.

For the molecule `CS(=O)(=O)c1cccc(C2(F)C(=O)Nc3sc(Cl)c(-c4ccccc4)c3C2=O)c1` (stereo not shown) [No 82, 2-chloro-5-fluoro-5-(3-methylsulfonylphenyl)-3-phenyl-7H-thieno[2,3-b]pyridine-4,6-dione], the “Activity: Ratio between the % of control” value is on record as “A (0%<A<50%)”.

For the origin of these results see patent US9365584B2, “Thieno [2,3-B] pyridinedione activators of AMPK and therapeutic uses thereof” (Poxel, priority 2009, dated 2016).
